In patent US10266529B2, “Salts, co-crystals, and polymorphs of an anxiolytic compound” (Bionomics Limited, priority 2013, dated 2019):
≈ marks a conversion by molar mass, not a printed value.

How the values were obtained:
Format in all cases: physicochemical
[1] = Aqueous solubility determination (2 h equilibration in doubly distilled water, HPLC)
Procedure: Approximately 0.3 mL of doubly distilled water was added to 3-10 mg of the substance to be measured. The resulting suspension/solution was equilibrated in a temperature-controlled Eppendorf Thermomixer Comfort shaker for 2 h at 25° C. at a shaking rate of 500 rpm. The solid phase was recovered by filter centrifugation (0.10-μm PVDF membrane) and examined by FT-Raman spectroscopy. The pH of the corresponding solution was determined with a Metrohm 713 pH meter. The concentration of the solution was determined by HPLC (see below).
Standard solutions of the SP196-FD-P1 free drug of compound 1 and the L-malate salt of compound 1 (SP196-MLA-P4) were prepared in the concentration range of 0.2-0.05 mg/mL for the construction of a calibration curve.

[2] = DVS (dynamic vapor sorption) isotherm / hygroscopicity
Procedure: Projekt Messtechnik Sorptions Prüfsystem SPS 11-100n or Surface Measurement Systems DVS-1. The sample was placed on an aluminum or platinum holder on top of a microbalance and allowed to equilibrate for 2 h at 50% r.h. before starting one of two pre-defined humidity programs: • (1) 2 h at 50% r.h.; • (2) 50→0% r.h. […] (5%/h); 5 h at 0% r.h.; and • (4) 0→50% r.h. (5%/h); 2 h at 50% r.h.

[3] = Suspension equilibration experiments (thermodynamically stable polymorphic form); conditions: at least in the temperature range from 25° C. to 60° C.
Procedure: Suspension equilibration experiments in a variety of different solvents and solvent mixtures were carried out at various temperatures.
In addition, the use of high temperatures can help overcome kinetic barriers to polymorphic interconversion.
The experiments at 5° C. were carried out to search for solvated (and additional hydrated) forms of compound 1 since experiments at low temperatures are conducive to solvate and hydrate formation.
The amorphous material was used as the starting material for several suspension equilibration experiments (temperature=5° C., 30° C., 75° C., or 90° C.; duration=1 d, 5 d, or 7 d; solvent=THF, 96:4 acetone/H2O, 98.5/1.5 acetone/H2O, 2-PrOH, or water). Since the amorphous form is in a higher energy state than the crystalline form of the starting material compound 1, potential kinetic barriers might not poses as much of a hindrance for a transformation. The amorphous form of compound 1 was used as starting material for experiments to determine the stability range of compound 1 by equilibration at various water activity levels.
Upon completion of the suspension equilibration experiments, the recovered products were examined by Raman spectroscopy both immediately after filtration and after 30 min of drying under vacuum at room temperature. […]

[4] = Stability of amorphous material under ambient conditions (re-examination by XRPD)
From the text: The amorphous material appears to be stable for at least 5 days under ambient conditions, as it was unchanged after re-examination by XRPD (data not shown).

| Compound | FT-Raman spectrum of the solid residue after aqueous solubility determination ([1]; after 2 h equilibration at 25° C. in water) | solubility at 2 h ([1]; doubly distilled water, 25 °C, pH 7.5, water, thermodynamic from solid, after 2 h equilibration at 25° C., pH=7.5 of saturated solution) | DVS final mass above the starting mass ([2]; after return from 95% r.h. to 50% r.h.) | hygroscopicity classification ([2]; based on mass gain at 85% r.h.) | DVS reversible mass loss ([2]; decreasing relative humidity from 50% r.h. to 0%) | DVS mass increase ([2]; from 50% to 85% r.h.) | DVS (total) mass increase ([2]; increasing relative humidity from 50% r.h. to 95% r.h.) | FT-Raman spectrum of the material after the DVS measurement ([2]; solid form after DVS cycle) | thermodynamic stability of the polymorph [3] | stability of the amorphous material (unchanged by XRPD) [4] |
| --- | --- | --- | --- | --- | --- | --- | --- | --- | --- | --- |
| CCn1cc(C(=O)N2CCOCC2)c(=O)c2cc(NC3Cc4ccccc4C3)cnc21 [Form C, 1-ethyl-6-(indan-2-ylamino)-3-(morpholine-4-carbonyl)-1,8-naphthyridin-4-one] | unchanged | ~40 µg/mL (≈ 95.6 µM) | equal to the starting mass | slightly hygroscopic (slightly hygroscopic (mass increase<2% and ≥0.2%)) | ~0.3 wt % | ~0.2 wt % | ~0.6 wt % | corresponds to the spectrum of the material before the DVS measurement | thermodynamically stable polymorph |  |
| CCn1cc(C(=O)N2CCOCC2)c(=O)c2cc(NC3Cc4ccccc4C3)cnc21 [Form D, 1-ethyl-6-(indan-2-ylamino)-3-(morpholine-4-carbonyl)-1,8-naphthyridin-4-one] |  |  |  |  |  |  |  |  | thermodynamically less stable than Form C |  |
| CCn1cc(C(=O)N2CCOCC2)c(=O)c2cc(NC3Cc4ccccc4C3)cnc21 [Form A, 1-ethyl-6-(indan-2-ylamino)-3-(morpholine-4-carbonyl)-1,8-naphthyridin-4-one] |  |  |  |  |  |  |  |  |  | at least 5 days |
